Columns and labels:
[1] = Solubility of 2% solutions (calculated as free acid) in pharmaceutically acceptable hydrophilic solvents; format: physicochemical
Description: The following table presents the solubility of mupirocin calcium amorphous, compared to the solubility of the crystalline form, in various pharmaceutically acceptable hydrophilic solvents. We prepared 2% solutions (calculated as free acid), similar to the commercially available products.

[2] = from U.S Pat. No. 4,916,155; cited from earlier work
[3] = Stability of 2% solution on heating (Δ % impurities); format: physicochemical
Procedure: The stability of Mupirocin Calcium amorphous in various acceptable pharmaceutical solvents was tested by heating a 2% solution to 80° C. for 24 hours or by heating it to 40° for 1 month. Bactroban cream was used as a reference.

[4] = 2% solution (calculated as free acid) in Hexylene glycol
[5] = 2% solution (calculated as free acid) in Glycerine
[6] = 2% solution in Propylene Glycol

Row | Structure (SMILES) | Solubility (After heating for 30 min. at 70° C.) ([1]; 2% solution (calculated as free acid) in Glycerine, calcium dihydrate) | Solubility (After heating for 30 min. at 70° C.) [1, 4] | Solubility (at room temperature) ([1]; 2% solution (calculated as free acid) in Hexylene glycol, calcium dihydrate) | Solubility (at room temperature) ([1]; 2% solution (calculated as free acid) in Propylene glycol, calcium dihydrate) | Solubility (After heating for 30 min. at 70° C.) ([1]; 2% solution (calculated as free acid) in Water) | Solubility (at room temperature) ([1]; 2% solution (calculated as free acid) in Water, calcium dihydrate) | Solubility in water [2] | Solubility (After heating for 30 min. at 70° C.) [1, 5] | Solubility (at room temperature) [1, 5] | Solubility (at room temperature) [1, 4] | Solubility in hydrophilic solvents compared with the crystalline form ([1]; hydrophilic solvents) | Δ % impurities (after heating for 1 month at 40° C.) ([3]; 2% solution in Glycerine) [%] | Δ % impurities (after heating for 24 h at 80° C.) ([3]; 2% solution in Glycerine) [%] | Δ % impurities (after heating for 1 month at 40° C.) ([3]; 2% solution in Hexylene Glycol) [%] | Δ % impurities (after heating for 24 h at 80° C.) ([3]; 2% solution in Hexylene Glycol) [%] | Δ % impurities (after heating for 1 month at 40° C.) [3, 6] [%] | Δ % impurities (after heating for 24 h at 80° C.) [3, 6] [%] | Δ % impurities (after heating for 1 month at 40° C.) ([3]; 2% solution in Water) [%] | Δ % impurities (after heating for 24 h at 80° C.) ([3]; 2% solution in Water) [%] | Stability of the solution ([3]; solution in hexylene glycol)
1 | C/C(=C\C(=O)OCCCCCCCCC(=O)[O-])C[C@@H]1OC[C@H](C[C@@H]2O[C@H]2[C@@H](C)[C@H](C)O)[C@@H](O)[C@H]1O.C/C(=C\C(=O)OCCCCCCCCC(=O)[O-])C[C@@H]1OC[C@H](C[C@@H]2O[C@H]2[C@@H](C)[C@H](C)O)[C@@H](O)[C@H]1O.O.O.[Ca+2] [Mupirocin Ca crystalline, crystalline Mupirocin calcium dihydrate] | Partially soluble | Not soluble | Not soluble | Soluble | Not soluble | Not soluble | poor solubility in water | – | – | – | – | – | – | – | – | – | – | – | – | –
2 | C/C(=C\C(=O)OCCCCCCCCC(=O)[O-])C[C@@H]1OC[C@H](C[C@@H]2O[C@H]2[C@@H](C)[C@H](C)O)[C@@H](O)[C@H]1O.C/C(=C\C(=O)OCCCCCCCCC(=O)[O-])C[C@@H]1OC[C@H](C[C@@H]2O[C@H]2[C@@H](C)[C@H](C)O)[C@@H](O)[C@H]1O.O.O.[Ca+2] [Mupirocin Ca amorphous, amorphous calcium mupirocin] | – | – | – | – | – | – | – | Soluble | Not soluble | Soluble | much more soluble in hydrophilic solvents | 29.2 | 29.4 | 1.5 | 2 | 7.5 | 8.7 | 36.7 | 36.4 | good stability

— patent publication US6489358B2, “Pharmaceutical compositions containing mupirocin” (Agis Industries (1983) Ltd., priority 2000, dated 2002)
